No end group written: not given here.
How the values were obtained:
[1] = test system: Pseudomonas aeruginosa ATCC 27853; conditions: ATCC 27853, 3 h
[2] = test system: Staphylococcus aureus ATCC 33591; conditions: ATCC 33591, 3 h

FLPIVGLLKSLLK-NH2 [TB_L1FK]
MBC, P. aeruginosa CCCP-pretreated [1]: 14 µM | MBC, P. aeruginosa CCCP-untreated [1]: 14 µM | MBC, S. aureus CCCP-pretreated [2]: 3.5 µM | MBC, S. aureus CCCP-untreated [2]: 7 µM

From publication PMC5632672, “Generation of Persister Cells of Pseudomonas aeruginosa and Staphylococcus aureus by Chemical Treatment and Evaluation of Their Susceptibility to Membrane-Targeting Agents” (Frontiers in Microbiology, 2017)
